Measured values taken from US12371454B2, “Cyclic peptide compound having Kras inhibitory action” (priority 2019, dated 2025).
Starred links: 1 amine or outer side, 2 acyl side, 3 side chain; linkers in the order of their positions; H or OH if unused. Positions of bridges follow the written chain, without caps; N, C: chain ends. Non-standard residues stand in square brackets, D forms with d. Residues, ends and D or L forms follow the SMILES beside them. *: point of attachment. hPhe(3-Cl-4-CF3) = N[C@@H](CCc1ccc(C(F)(F)F)c(Cl)c1)C(=O)O; hPhe(4-CF3) = N[C@@H](CCc1ccc(C(F)(F)F)cc1)C(=O)O; NEtPhe(4-Me) = CCN[C@@H](Cc1ccc(C)cc1)C(=O)O; NMePhe(4-Cl) = CN[C@@H](Cc1ccc(Cl)cc1)C(=O)O; NMePhe(2-Cl) = CN[C@@H](Cc1ccccc1Cl)C(=O)O; NMePhe(4-F) = CN[C@@H](Cc1ccc(F)cc1)C(=O)O; NMedβ3hAla = C[C@H](CC(=O)[*:2])N(C)[*:1]; NMeGly(cPent) = CN[C@H](C(=O)O)C1CCCC1; NMeCha = CN[C@@H](CC1CCCCC1)C(=O)O; Hyp = O=C(O)[C@@H]1C[C@@H](O)CN1; NMeChg = CN[C@H](C(=O)O)C1CCCCC1; NMeF = CN[C@@H](Cc1ccccc1)C(=O)O; Cha = N[C@@H](CC1CCCCC1)C(=O)O; Gly(cPr) = N[C@H](C(=O)O)C1CC1; NMeD = CN[C@@H](CC(=O)O)C(=O)O; NMeL = CN[C@@H](CC(C)C)C(=O)O; NMeV = CN[C@H](C(=O)O)C(C)C; d(β3hA) = C[C@@H](N)CC(=O)O; NMeA = CN[C@@H](C)C(=O)O; Piperidide = C1CCN(*)CC1; Pyrrolidide = C1CCN(*)C1; dNMeA = CN[C@H](C)C(=O)O; Ac5c = NC1(C(=O)O)CCCC1; Aze = O=C(O)[C@@H]1CCN1; NcPrGly = O=C(O)CNC1CC1; βAla = NCCC(=O)O; Sar = CNCC(=O)O

Target: T1, Kras and SOS1 (biotin-tagged human Kras loaded with GDP, His-tagged human SOS1) (Homo sapiens, UniProt P01116, G12D)
T1 construct: made in house; host or cells: E. coli (stated for Kras only)
T1 sequence (P01116 1-188 isoform P01116-2 G12D): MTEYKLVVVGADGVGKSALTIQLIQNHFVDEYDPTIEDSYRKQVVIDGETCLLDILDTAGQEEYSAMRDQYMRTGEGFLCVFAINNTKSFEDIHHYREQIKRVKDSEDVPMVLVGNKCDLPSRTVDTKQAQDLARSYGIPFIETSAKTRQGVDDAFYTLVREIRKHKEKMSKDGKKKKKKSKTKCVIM
Test: Protein-protein interaction inhibition between Kras and SOS1 (KrasGl2D-SOS PPI) using AlphaScreen
Type: binding
Details: AlphaScreen; biotin-tagged human Kras loaded with GDP, His-tagged human SOS1; read-out: KRAS G12D-SOS PPI IC50
Outline: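 Binding between SOS1 and Kras is detected as bead-proximity luminescence: illuminate Ni-conjugated donors (680 nm), collect 520-620 nm emission from streptavidin-conjugated acceptors; Kras carries biotin and GDP loaded after purification, SOS1 carries a His tag.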

CCO[C@@H]1C[C@H]2C(=O)NC3(CCCC3)C(=O)N(C)[C@@H](C3CCCC3)C(=O)N(C)[C@H](C)CC(=O)N(C)[C@@H](CC(C)C)C(=O)N[C@@H]([C@@H](C)CC)C(=O)N[C@@H](C)C(=O)N3CC[C@H]3C(=O)N(CC)[C@@H](Cc3ccc(C)cc3)C(=O)N(C)CC(=O)N[C@@H](CCc3ccc(C(F)(F)F)c(Cl)c3)C(=O)N2C1 [Compound 525] (cyclo(A[Aze][NEtPhe(4-Me)][Sar][hPhe(3-Cl-4-CF3)][Hyp](Et)[Ac5c][NMeGly(cPent)][NMedβ3hAla][NMeL]I))
IC50: 2.3 nM

CC[C@H](C)[C@@H]1NC(=O)[C@H](CC(C)C)N(C)C(=O)C[C@@H](C(=O)N2CCCCC2)N(C)C(=O)[C@H](C2CCCCC2)N(C)C(=O)C2(CCCC2)NC(=O)[C@H](Cc2ccccc2)N(C)C(=O)[C@H](CCc2ccc(C(F)(F)F)c(Cl)c2)NC(=O)CN(C)C(=O)[C@H](CC2CCCCC2)N(C)C(=O)[C@@H]2CCN2C(=O)CN(C)C1=O [Compound 527] ([NMeL]I[Sar][Aze][NMeCha][Sar][hPhe(3-Cl-4-CF3)][NMeF][Ac5c][NMeChg][NMeD]-Piperidide; lactam N-11)
IC50: 38 nM

CC[C@H](C)[C@@H]1NC(=O)CCNC(=O)[C@H](Cc2ccc(F)cc2)N(C)C(=O)[C@H](C2CCCCC2)N(C)C(=O)C2(CCCC2)NC(=O)[C@@H]2CCCN2C(=O)[C@H](CCc2ccc(C(F)(F)F)c(Cl)c2)NC(=O)CN(C)C(=O)[C@H](CC2CCCCC2)N(C)C(=O)CN(C)C(=O)CN(C)C1=O [Compound 528] (cyclo([Ac5c][NMeChg][NMePhe(4-F)][βAla]I[Sar][Sar][NMeCha][Sar][hPhe(3-Cl-4-CF3)]P))
IC50: 20 nM

CC(C)C[C@H]1C(=O)N[C@@H](C2CC2)C(=O)N(C)CC(=O)N(C)CC(=O)N(C)[C@@H](CC2CCCCC2)C(=O)N(C)CC(=O)N[C@@H](CCc2ccc(C(F)(F)F)c(Cl)c2)C(=O)N2CCC[C@H]2C(=O)NC2(CCCC2)C(=O)N(C)[C@@H](C(C)C)C(=O)N(C)[C@H](C(=O)N2CCCCC2)CC(=O)N1C [Compound 533] ([NMeL][Gly(cPr)][Sar][Sar][NMeCha][Sar][hPhe(3-Cl-4-CF3)]P[Ac5c][NMeV][NMeD]-Piperidide; lactam N-11)
IC50: 8.5 nM

CC[C@H](C)[C@@H]1NC(=O)[C@H](C)N(C)C(=O)C[C@@H](C(=O)N2CCCC2)NC(=O)[C@H](CC(C)C)N(C)C(=O)[C@H](CC2CCCCC2)N(C)C(=O)[C@H](CC(C)C)NC(=O)[C@H](CCc2ccc(C(F)(F)F)cc2)NC(=O)CN(C)C(=O)[C@H](Cc2ccc(Cl)cc2)N(C)C(=O)CN(C)C(=O)CN(C)C1=O [Compound 536] ([NMeA]I[Sar][Sar][NMePhe(4-Cl)][Sar][hPhe(4-CF3)]L[NMeCha][NMeL]D-Pyrrolidide; lactam N-11)
IC50: 230 nM

CC(C)C[C@H]1C(=O)N[C@@H](CC2CCCCC2)C(=O)N(C)CC(=O)N(C)CC(=O)N(C)[C@@H](CC2CCCCC2)C(=O)N(C)CC(=O)N[C@@H](CCc2ccc(C(F)(F)F)c(Cl)c2)C(=O)N2CCC[C@H]2C(=O)NC2(CCCC2)C(=O)N(C)[C@@H](C(C)C)C(=O)N[C@H](C)CC(=O)N1C [Compound 537] (cyclo([Ac5c][NMeV][d(β3hA)][NMeL][Cha][Sar][Sar][NMeCha][Sar][hPhe(3-Cl-4-CF3)]P))
IC50: 82 nM

CC[C@H](C)[C@@H]1NC(=O)[C@H](C(C)C)N(C)C(=O)C[C@@H](C)NC(=O)[C@H](CC(C)C)N(C)C(=O)C2(CCCC2)NC(=O)[C@H](CC(C)C)N(C)C(=O)[C@H](CCc2ccc(C(F)(F)F)cc2)NC(=O)CN(C)C(=O)[C@H](Cc2ccc(Cl)cc2)N(C)C(=O)CN(C)C(=O)[C@@H]2CCN2C1=O [Compound 538] (cyclo([Ac5c][NMeL][d(β3hA)][NMeV]I[Aze][Sar][NMePhe(4-Cl)][Sar][hPhe(4-CF3)][NMeL]))
IC50: 110 nM

CC[C@H](C)[C@@H]1NC(=O)[C@H](C)N(C)C(=O)C[C@@H](C)NC(=O)[C@H](C2CCCC2)N(C)C(=O)C2(CCCC2)NC(=O)[C@@H]2CCCN2C(=O)[C@H](CCc2ccc(C(F)(F)F)c(Cl)c2)NC(=O)[C@@H](C)N(C)C(=O)[C@H](Cc2ccccc2Cl)N(C)C(=O)CN(C)C(=O)CN(C)C1=O [Compound 539] (cyclo([Ac5c][NMeGly(cPent)][d(β3hA)][NMeA]I[Sar][Sar][NMePhe(2-Cl)][dNMeA][hPhe(3-Cl-4-CF3)]P))
IC50: 190 nM

CC[C@H](C)[C@@H]1NC(=O)[C@H](CC(C)C)N(C)C(=O)C[C@@H](C)NC(=O)[C@H](C(C)C)N(C)C(=O)C2(CCCC2)NC(=O)[C@@H]2CCCN2C(=O)[C@H](CCc2ccc(C(F)(F)F)c(Cl)c2)NC(=O)CN(C)C(=O)[C@H](CC2CCCCC2)N(C)C(=O)CN(C)C(=O)CN(C2CC2)C1=O [Compound 542] (cyclo([Ac5c][NMeV][d(β3hA)][NMeL]I[NcPrGly][Sar][NMeCha][Sar][hPhe(3-Cl-4-CF3)]P))
IC50: 61 nM
